We go through 8 compounds from US20140005163A1 (NOVARTIS AG, priority 2010, published 2014).

pIC50: −log10 of the molar value.

Test [1] has as its target T1, PI3K alpha (Homo sapiens, UniProt P42336).
T1 construct: p85(iSH2) fusion partner (see partner chain) (N); His tag (C); made in house; host or cells: baculovirus; Tn5 (Trichoplusia ni) or TiniPro insect cells
Briefly: PI3K alpha kinase assay (Kinase-Glo luminescence). Format: biochemical. The procedure, abridged:
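Read-out: Kinase-Glo luminescence of ATP left after 60 min at room temperature. Conditions: 10 nM PI3Kα (EMV B1075), 1 μM ATP, 10 μg/mL PI substrate, Tris pH 7.5 buffer with MgCl2, NaCl, CHAPS and DTT. IC50s fitted with a four-parameter logistic model.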
Background: Kinase-Glo reads ATP consumption through a luciferase reaction.

Test [2] addresses T2, PI3K beta (Homo sapiens, UniProt P42338).
T2 construct: for the full-length p110-b subunit are generated and fused by overlapping PCR; p85(iSH2) fusion partner (see partner chain) (N); His tag (C); made in house; host or cells: baculovirus; Tn5 (Trichoplusia ni) or TiniPro insect cells
Briefly: PI3K beta kinase assay (Kinase-Glo luminescence). In kind it is biochemical. The procedure, abridged: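 Residual ATP after a 60 min room-temperature reaction is quantified by Kinase-Glo luminescence. Enzyme: 25 nM BV-949 (p85 iSH2–linker–full-length p110β); substrates 1 μM ATP, 10 μg/mL PI; buffer Tris pH 7.5, MgCl2, NaCl, CHAPS, DTT. Eight concentrations per compound, four-parameter logistic IC50.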

In test [3] the test system is PKB Ser473 phosphorylation in Rat1-myr-HA-p110 delta cells. The experiment in a line: Reverse protein array assay, PKB Ser473 phosphorylation in Rat1-myr-p110 delta cells. In kind it is cell-based. The note with it: read-out: p-PKB IC50. In a few lines: (§1)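 Rat1 cells expressing myristoylated HA-tagged p110 alpha, beta or delta were plated for at least 20 h, then exposed to 8-step serial compound dilutions (0.2% DMSO final) for 30 min at 37 °C. Lysates were spotted at four dilutions on protein microarrays, and relative fluorescence intensity of phospho-Ser473 PKB was calculated.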

The subject of test [4] is PKB Ser473 phosphorylation in Rat1-myr-HA-p110 beta cells. The experiment in a line: Reverse protein array assay, PKB Ser473 phosphorylation in Rat1-myr-p110 beta cells. The note with it: 0.5 h, pAkt Ser473, 30 minutes incubation, read-out: p-PKB IC50. In kind it is cell-based. The procedure, abridged:
as §1

The subject of test [5] is PKB Ser473 phosphorylation in Rat1-myr-HA-p110 alpha cells. Briefly: Reverse protein array assay, PKB Ser473 phosphorylation in Rat1-myr-p110 alpha cells. Format: cell-based. The note with it: 0.5 h, pAkt Ser473, 30 minutes compound incubation, read-out: p-PKB IC50. The procedure, abridged: as §1

T2 sequence (P42338 with tags, fused parts or gaps limits assumed): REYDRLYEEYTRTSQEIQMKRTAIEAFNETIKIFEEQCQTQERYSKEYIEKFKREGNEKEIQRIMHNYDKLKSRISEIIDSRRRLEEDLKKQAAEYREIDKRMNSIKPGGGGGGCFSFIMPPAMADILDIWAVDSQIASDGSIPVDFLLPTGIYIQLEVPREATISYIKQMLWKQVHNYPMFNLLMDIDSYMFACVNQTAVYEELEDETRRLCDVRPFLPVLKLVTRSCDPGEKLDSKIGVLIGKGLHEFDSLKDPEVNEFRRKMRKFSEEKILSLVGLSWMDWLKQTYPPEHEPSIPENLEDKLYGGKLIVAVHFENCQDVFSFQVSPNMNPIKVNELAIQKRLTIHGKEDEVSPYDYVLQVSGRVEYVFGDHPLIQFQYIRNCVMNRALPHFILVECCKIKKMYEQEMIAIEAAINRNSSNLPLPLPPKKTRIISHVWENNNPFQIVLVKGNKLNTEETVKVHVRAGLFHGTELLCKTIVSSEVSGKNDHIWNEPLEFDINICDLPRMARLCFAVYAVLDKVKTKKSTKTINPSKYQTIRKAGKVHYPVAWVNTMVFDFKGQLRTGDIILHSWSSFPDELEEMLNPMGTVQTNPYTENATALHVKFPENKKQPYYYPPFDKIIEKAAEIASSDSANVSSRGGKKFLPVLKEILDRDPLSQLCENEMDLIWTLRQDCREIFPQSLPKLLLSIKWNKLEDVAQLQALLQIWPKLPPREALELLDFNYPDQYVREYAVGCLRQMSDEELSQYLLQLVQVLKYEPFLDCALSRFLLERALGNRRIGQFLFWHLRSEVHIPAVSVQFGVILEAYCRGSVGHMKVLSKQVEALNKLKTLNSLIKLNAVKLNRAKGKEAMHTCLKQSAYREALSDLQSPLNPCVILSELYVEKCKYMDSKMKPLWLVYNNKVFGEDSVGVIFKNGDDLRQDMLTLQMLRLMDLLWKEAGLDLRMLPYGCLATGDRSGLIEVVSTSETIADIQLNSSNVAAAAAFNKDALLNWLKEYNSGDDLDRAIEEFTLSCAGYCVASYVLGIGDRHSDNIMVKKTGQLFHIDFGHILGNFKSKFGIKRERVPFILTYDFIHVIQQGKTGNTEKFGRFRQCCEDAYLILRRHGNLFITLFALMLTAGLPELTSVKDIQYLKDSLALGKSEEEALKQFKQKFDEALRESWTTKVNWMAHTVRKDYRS
T1 sequence (P42336 with tags, fused parts or gaps limits assumed): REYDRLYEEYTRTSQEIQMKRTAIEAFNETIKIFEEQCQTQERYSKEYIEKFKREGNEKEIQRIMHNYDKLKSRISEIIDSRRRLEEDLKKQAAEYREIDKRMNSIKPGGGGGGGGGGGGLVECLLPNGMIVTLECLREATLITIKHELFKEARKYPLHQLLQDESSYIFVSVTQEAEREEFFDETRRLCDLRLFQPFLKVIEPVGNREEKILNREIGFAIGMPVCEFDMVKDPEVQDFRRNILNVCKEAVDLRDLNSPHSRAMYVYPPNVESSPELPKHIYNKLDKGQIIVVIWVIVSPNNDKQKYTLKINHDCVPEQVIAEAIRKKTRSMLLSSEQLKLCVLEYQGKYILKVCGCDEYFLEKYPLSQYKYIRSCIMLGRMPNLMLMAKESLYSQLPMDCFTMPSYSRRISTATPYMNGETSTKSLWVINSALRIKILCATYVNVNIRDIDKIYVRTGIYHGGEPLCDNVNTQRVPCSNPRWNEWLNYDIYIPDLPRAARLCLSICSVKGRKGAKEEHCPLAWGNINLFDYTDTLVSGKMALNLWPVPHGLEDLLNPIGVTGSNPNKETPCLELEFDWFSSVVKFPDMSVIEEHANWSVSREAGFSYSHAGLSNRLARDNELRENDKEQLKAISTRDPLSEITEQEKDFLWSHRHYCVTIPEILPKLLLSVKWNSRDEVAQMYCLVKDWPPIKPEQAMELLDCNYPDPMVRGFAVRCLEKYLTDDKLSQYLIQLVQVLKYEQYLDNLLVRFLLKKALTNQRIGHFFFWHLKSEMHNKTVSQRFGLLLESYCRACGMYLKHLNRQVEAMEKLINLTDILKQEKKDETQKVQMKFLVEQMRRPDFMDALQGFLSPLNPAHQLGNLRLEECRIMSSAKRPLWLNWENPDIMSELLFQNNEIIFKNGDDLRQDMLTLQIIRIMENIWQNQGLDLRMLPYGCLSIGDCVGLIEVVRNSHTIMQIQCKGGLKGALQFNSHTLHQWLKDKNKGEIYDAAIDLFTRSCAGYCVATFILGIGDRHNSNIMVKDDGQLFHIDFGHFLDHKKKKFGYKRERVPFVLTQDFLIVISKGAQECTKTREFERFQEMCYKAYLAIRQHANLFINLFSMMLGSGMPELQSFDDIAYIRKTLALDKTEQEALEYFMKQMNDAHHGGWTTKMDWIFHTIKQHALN

By pIC50 is commonly meant the negative decadic logarithm of the IC50, by convention in mol/L. For the compound `CCCOc1ccc(-c2ccc3ncc4c(c3c2)n(-c2cn(C)nc2C)c(=O)n4C)cn1` [Example 55, 1-(1,3-Dimethyl-1H-pyrazol-4-yl)-3-methyl-8-(6-propoxy-pyridin-3-yl)-1,3-dihydro-imidazo[4,5-c]quinolin-2-one], the pIC50 is 7.25 in test [1]; 6.02 in test [2]; 7.27 in test [3]; 7.68 in test [4]; 7.70 in test [5].
As for `CNc1ccc(-c2ccc3ncc4c(c3c2)n(-c2cn(C(C)C)nc2C)c(=O)n4C)cn1` [Example 118.1, 1-(1-isopropyl-3-methyl-1H-pyrazol-4-yl)-3-methyl-8-(6-methylamino-pyridin-3-yl)-1,3-dihydro-imidazo[4,5-c]quinolin-2-one], the pIC50 is 7.59 in test [1]; 6.52 in test [2]; 7.92 in test [3]; 7.85 in test [4]; 8.10 in test [5].
`Cc1nn(C)cc1-n1c(=O)n(C)c2cnc3ccc(-c4cccnc4)cc3c21` [Example 10.2, 1-(1,3-Dimethyl-1H-pyrazol-4-yl)-3-methyl-8-pyridin-3-yl-1,3-dihydro-imidazo[4,5-c]quinolin-2-one]: the pIC50 is 7.80 in test [1]; 7.07 in test [2]; 6.71 in test [3]; 7.24 in test [4]; 7.30 in test [5].
The like results for `CNc1ccc(-c2ccc3ncc4c(c3c2)n(-c2cn(C)nc2Cl)c(=O)n4C)cn1` [Example 118.5, 1-(3-Chloro-1-methyl-1H-pyrazol-4-yl)-3-methyl-8-(6-methylamino-pyridin-3-yl)-1,3-dihydro-imidazo[4,5-c]quinolin-2-one] were, in that order, 8.05, 7.39, 8.22, above 8.30 and above 8.30.
For `CCNc1cc(-c2ccc3ncc4c(c3c2)n(-c2cn(C)nc2Cl)c(=O)n4C)cnc1OC` [Example 90.1, 1-(3-Chloro-1-methyl-1H-pyrazol-4-yl)-8-(5-ethylamino-6-methoxy-pyridin-3-yl)-3-methyl-1,3-dihydro-imidazo[4,5-c]quinolin-2-one], in that order: 7.37, 7.41, above 8.30, above 8.30 and above 8.30.
For `CNc1ncc(-c2ccc3ncc4c(c3c2)n(-c2cn(C(C)C)nc2C)c(=O)n4C)cc1CO` [Example 171, 8-(5-Hydroxymethyl-6-methylamino-pyridin-3-yl)-1-(1-isopropyl-3-methyl-1H-pyrazol-4-yl)-3-methyl-1,3-dihydro-imidazo[4,5-c]quinolin-2-one], the pIC50 in test [1] is 7.49; in test [2], 6.84; in test [3] it was 7.39; in test [4] it was above 8.30; in test [5], 8.05.
Consider `COCCOc1cc(-c2ccc3ncc4c(c3c2)n(-c2cn(C)nc2C)c(=O)n4C)cnc1C` [Example 86.2, 1-(1,3-Dimethyl-1H-pyrazol-4-yl)-8-[5-(2-methoxy-ethoxy)-6-methyl-pyridin-3-yl]-3-methyl-1,3-dihydro-imidazo[4,5-c]quinolin-2-one], for which the pIC50 in test [1] is 8.05; in test [2], 7.68; in test [3] it was 7.24; in test [4] it was 7.28; in test [5], 7.48.
For `COc1ccc(-c2ccc3ncc4c(c3c2)n(-c2c(C)nn(C)c2C)c(=O)n4C)cc1OC` [Example 1.9, 8-(3,4-Dimethoxy-phenyl)-3-methyl-1-(1,3,5-trimethyl-1H-pyrazol-4-yl)-1,3-dihydro-imidazo[4,5-c]quinolin-2-one], in that order: 7.55, 7.41, 6.85, 6.95 and 7.59.
